Reference: US9622987B2, “Synergistic pharmaceutical composition useful for the treatment of lung cancer” (Council of Scientific & Industrial Research, priority 2012, dated 2017)

System: Lung Cancer cell Line (A-549)
Test: Cell death / viability of A549 lung cancer cells exposed to vapour (MTT, trypan blue)
Format: cell-based
Details: for activity so far lung cancer cell death is concerned (FIG. 1C): vapors of single compounds, 1:2000 dilution, 48 h, A549
Protocol: The lung cancer cell line, A-549 were cultured in DMEM (Dulbecco's Modified Eagle Medium) containing Earle's salts and non-essential amino acids supplemented with 10% fetal calf serum, penicillin (100 U/ml) and streptomycin (100 μg/ml) in a humidified 95% O2/5% CO2 atmosphere at 37° C. Confluent cells were subcultured by trypsinization and subsequently seeded in 6 well culture plates containing DMEM with essential supplements.
After CVp treatment, cells were washed with PBS, trypsinized and re-suspended in complete growth medium. Trypan blue (0.4%) was added to the cell suspension and both live and dead cells were counted using a heamocytometer.
Cell viability was determined by performing MTT assay (Chemicon, Temecula, Calif., USA) according to manufacturer's instructions. Briefly, cells were plated in 96 well plates. Overnight after cell plating, cells were incubated with CVp. Briefly, 10 μL of 3-(4,5-dimethylthiazol-2-yl)-2-5-diphenyl tetrazolium bromide (MTT) was added to each well for 4 h at 37° C. After solubilization in 100 μL 1(N) isopropanol/0.04(N) HCl, absorbance was read at 595 nm in microplate reader (Thermo Electron Corporation, MA, USA).
The vapors generated from each of these wells were exposed to cells at 1:2000 dilution for 48 h. […] We therefore used the vapor from these combined compounds which is henceforth termed as Combined Vapour (CVp=C2+C3+C4).

| Compound | Activity in vapour form % of cell death for Lung Cancer cell Line (A-549) | activity so far lung cancer cell death is concerned (FIG. 1C) |
| --- | --- | --- |
| C=C(C)[C@@H]1CC[C@@H](C)C[C@H]1O [Compound C3, Isopulegol] | 36.0 ± 4.5% | – |
| CC(C)=CCCC(C)CC=O (stereo not drawn) [Compound C1, Citronellal] | 12.5 ± 3.6% | poor activity |
| CC(C)=CCCC(C)CCO (stereo not drawn) [Compound C4, Citronellol] | 70.0 ± 6.0% | highest activity |
| C=C(C)C1CCC(C)CC1O (stereo not drawn) [Compound C2, Neo-isopulegol] | 30.5 ± 5.0% | – |
